In US7507730B2, “Substituted pyrazolo[1,5-a]pyrimidines as potassium channel activators” (Bristol-Myers Squibb Company, priority 2005, dated 2009):
Read-outs that look alike come from different tables or passages of the source.

Biological target: Kv1.5 (Homo sapiens, UniProt P22460)
Assay: Kv1.5 inhibition assay (IKur inhibitor assay per cited references)
Assay type: cell-based
Description: Assays to determine the degree of activity of a compound as an IKur inhibitor are well known in the art and are described in references such as J. Gen. Physiol. Apr.; 101 (4):513-43, and Br. J. Pharmacol. 1995 May; 115(2):267-74.

[1] = given as % inhibition, value given as a concentration in μM, read-out: Kv1.5% inhibition

Chain of Kv1.5 (P22460 whole entry): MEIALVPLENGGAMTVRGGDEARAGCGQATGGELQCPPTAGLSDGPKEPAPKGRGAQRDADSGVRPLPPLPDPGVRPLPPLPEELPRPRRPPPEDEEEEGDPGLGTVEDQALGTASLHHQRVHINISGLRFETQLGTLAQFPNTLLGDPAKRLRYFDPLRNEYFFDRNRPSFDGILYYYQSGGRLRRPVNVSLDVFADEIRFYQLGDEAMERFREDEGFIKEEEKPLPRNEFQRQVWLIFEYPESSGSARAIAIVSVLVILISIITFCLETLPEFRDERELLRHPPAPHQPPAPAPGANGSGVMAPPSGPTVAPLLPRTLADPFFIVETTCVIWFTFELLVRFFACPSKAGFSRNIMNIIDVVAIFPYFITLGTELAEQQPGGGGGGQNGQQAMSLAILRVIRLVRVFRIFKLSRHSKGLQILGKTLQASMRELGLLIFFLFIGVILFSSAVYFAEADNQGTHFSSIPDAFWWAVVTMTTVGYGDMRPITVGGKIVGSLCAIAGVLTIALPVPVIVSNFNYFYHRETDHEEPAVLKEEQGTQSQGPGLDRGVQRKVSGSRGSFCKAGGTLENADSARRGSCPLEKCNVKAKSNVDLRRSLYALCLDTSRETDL

inhibition at 0.3 µM	Structure (SMILES)	other results
6.1%	CC1=C(S(=O)(=O)c2ccccc2)C(c2ccc3c(c2)OCO3)n2nc(C)cc2N1 (racemic) [Example 6, 7-(Benzo[d][1,3]dioxol-5-yl)-2,5-dimethyl-6-(phenylsulfonyl)-4,7-dihydropyrazolo[1,5-a]pyrimidine]	–
15.4%	CC1=C(S(=O)(=O)C(C)C)C(c2ccc(Cl)c(Cl)c2)n2nc(C)cc2N1 (racemic) [Example 13, 7-(3,4-Dichlorophenyl)-6-(isopropylsulfonyl)-2,5-dimethyl-4,7-dihydropyrazolo[1,5-a]pyrimidine]	–
50.4%	CC1=C(S(=O)(=O)Cc2ccccc2)C(c2ccc(Cl)c(Cl)c2)n2nc(C)cc2N1 (racemic) [Example 14, 6-(Benzylsulfonyl)-7-(3,4-dichlorophenyl)-2,5-dimethyl-4,7-dihydropyrazolo[1,5-a]pyrimidine]	–
8.5%	Cc1cc2nc(C)c(S(=O)(=O)Cc3ccccc3)c(-c3ccc(Cl)c(Cl)c3)n2n1 (racemic) [Example 15, 6-(Benzylsulfonyl)-7-(3,4-dichlorophenyl)-2,5-dimethylpyrazolo[1,5-a]pyrimidine]	–
37.2%	CC1=C(S(=O)(=O)Cc2ccccc2)C(c2ccc(Cl)c(Cl)c2)n2nc(C(F)(F)F)cc2N1 (racemic) [Example 16, 6-(Benzylsulfonyl)-7-(3,4-dichlorophenyl)-5-methyl-2-(trifluoromethyl)-4,7-dihydropyrazolo[1,5-a]pyrimidine]	–
7.8%	CC1=C(S(=O)(=O)c2ccccc2)C(c2ccc(Cl)s2)n2nc(C(F)(F)F)cc2N1 (racemic) [Example 20, 7-(5-Chlorothiophen-2-yl)-5-methyl-6-(phenylsulfonyl)-2-(trifluoromethyl)-4,7-dihydropyrazolo[1,5-a]pyrimidine]	–
11.1%	CC1=C(S(=O)(=O)c2ccccc2)C(c2ccc(N3CCCC3)cc2)n2nc(C(F)(F)F)cc2N1 (racemic) [Example 21, 5-Methyl-6-(phenylsulfonyl)-7-(4-(pyrrolidin-1-yl)phenyl)-2-(trifluoromethyl)-4,7-dihydropyrazolo[1,5-a]pyrimidine]	–
30.7%	CC1=C(S(=O)(=O)c2ccccc2)C(c2ccc(F)c(C)c2)n2nc(C(F)(F)F)cc2N1 (racemic) [Example 22, 7-(4-Fluoro-3-methylphenyl)-5-methyl-6-(phenylsulfonyl)-2-(trifluoromethyl)-4,7-dihydropyrazolo[1,5-a]pyrimidine]	–
37.6%	CC1=C(S(=O)(=O)c2ccc(Cl)cc2)C(c2ccc(C)cc2)n2nc(C(F)(F)F)cc2N1 (racemic) [Example 34, 6-(4-Chlorophenylsulfonyl)-5-methyl-7-p-tolyl-2-(trifluoromethyl)-4,7-dihydropyrazolo[1,5-a]pyrimidine]	–
15%	COc1ccc(S(=O)(=O)C2=C(CO)Nc3cc(C(F)(F)F)nn3C2c2ccc(Cl)c(Cl)c2)cc1 (racemic) [Example 48, (7-(3,4-Dichlorophenyl)-6-(4-methoxyphenylsulfonyl)-2-(trifluoromethyl)-4,7-dihydropyrazolo[1,5-a]pyrimidin-5-yl)methanol]	–
49.6%	CC1=C(S(=O)(=O)NC2CCCCC2)C(c2ccc(Cl)cc2)n2nc(C(F)(F)F)cc2N1 (racemic) [Example 52, 7-(4-Chlorophenyl)-N-cyclohexyl-5-methyl-2-(trifluoromethyl)-4,7-dihydropyrazolo[1,5-a]pyrimidine-6-sulfonamide]	–
27.7%	CC1=C(S(=O)(=O)NCc2ccccc2)C(c2ccc(Cl)cc2)n2nc(C(F)(F)F)cc2N1 (racemic) [Example 54, N-Benzyl-7-(4-chlorophenyl)-5-methyl-2-(trifluoromethyl)-4,7-dihydropyrazolo[1,5-a]pyrimidine-6-sulfonamide]	–
34.1%	CC1=C(S(=O)(=O)NC(C)(C)C)C(c2ccc(Cl)cc2)n2nc(C(F)(F)F)cc2N1 (racemic) [Example 57, N-tert-Butyl-7-(4-chlorophenyl)-5-methyl-2-(trifluoromethyl)-4,7-dihydropyrazolo[1,5-a]pyrimidine-6-sulfonamide]	–
83.2%	CC1=C(S(=O)(=O)N(C)c2ccccc2)C(c2ccc(Cl)c(Cl)c2)n2nc(C)cc2N1 (racemic) [Example 60, 7-(3,4-Dichlorophenyl)-N,2,5-trimethyl-N-phenyl-4,7-dihydropyrazolo[1,5-a]pyrimidine-6-sulfonamide]	–
12%	Cc1nc2cc(C(F)(F)F)nn2c(-c2ccc(Cl)c(Cl)c2)c1S(=O)(=O)N(C)c1ccccc1 (racemic) [Example 62, 7-(3,4-Dichlorophenyl)-N,5-dimethyl-N-phenyl-2-(trifluoromethyl)pyrazolo[1,5-a]pyrimidine-6-sulfonamide]	–
7%	CC1=C(S(=O)(=O)N2CCCC2)C(c2ccc(Cl)c(Cl)c2)n2nc(C)nc2N1 (racemic) [Example 68, 7-(3,4-Dichlorophenyl)-2,5-dimethyl-6-(pyrrolidin-1-ylsulfonyl)-4,7-dihydro-[1,2,4]triazolo[1,5-a]pyrimidine]	–
26%	CC1=C(S(=O)(=O)N2CCN(c3ccccc3)CC2)C(c2ccc(Cl)c(Cl)c2)n2nc(C(F)(F)F)cc2N1 (racemic) [Example 70, 7-(3,4-Dichlorophenyl)-5-methyl-6-(4-phenylpiperazin-1-ylsulfonyl)-2-(trifluoromethyl)-4,7-dihydropyrazolo[1,5-a]pyrimidine]	–
41%	CC1=C(S(=O)(=O)N2CCCC2)C(c2cc3ccccc3n2C)n2nc(C(F)(F)F)cc2N1 (racemic) [Example 71, 5-Methyl-7-(1-methyl-1H-indol-2-yl)-6-(pyrrolidin-1-ylsulfonyl)-2-(trifluoromethyl)-4,7-dihydropyrazolo[1,5-a]pyrimidine]	–
34%	CC1=C(S(=O)(=O)c2ccc(Cl)cc2)C(c2cc3ccccc3n2C)n2nc(C(F)(F)F)cc2N1 (racemic) [Example 72, 6-(4-Chlorophenylsulfonyl)-5-methyl-7-(1-methyl-1H-indol-2-yl)-2-(trifluoromethyl)-4,7-dihydropyrazolo[1,5-a]pyrimidine]	–
86%	COc1ccc(S(=O)(=O)N(C)C(=O)C2=C(C)Nc3ccnn3C2c2ccc(Cl)c(Cl)c2)cc1 (racemic) [Example 73, 7-(3,4-Dichlorophenyl)-N-(4-methoxyphenylsulfonyl)-N,5-dimethyl-4,7-dihydropyrazolo[1,5-a]pyrimidine-6-carboxamide]	–
79%	CC1=C(C(=O)N(C)S(=O)(=O)c2ccccc2)C(c2ccc(Cl)c(Cl)c2)n2nccc2N1 (racemic) [Example 74, 7-(3,4-Dichlorophenyl)-N,5-dimethyl-N-(phenylsulfonyl)-4,7-dihydropyrazolo[1,5-a]pyrimidine-6-carboxamide]	–
89%	CC1=C(C(=O)N(C)S(=O)(=O)c2ccc(Cl)cc2)C(c2ccc(Cl)c(Cl)c2)n2nccc2N1 (racemic) [Example 75, N-(4-Chlorophenylsulfonyl)-7-(3,4-dichlorophenyl)-N,5-dimethyl-4,7-dihydropyrazolo[1,5-a]pyrimidine-6-carboxamide]	–
38%	CC1=C(C(=O)N(C)S(=O)(=O)c2ccc3ccc(Cl)cc3c2)C(c2ccc(Cl)c(Cl)c2)n2nccc2N1 (racemic) [Example 76, N-(7-Chloronaphthalen-2-ylsulfonyl)-7-(3,4-dichlorophenyl)-N,5-dimethyl-4,7-dihydropyrazolo[1,5-a]pyrimidine-6-carboxamide]	–
–	COc1ccc(S(=O)(=O)N(C)C(=O)C2=C(C)Nc3cc(C)nn3C2c2ccc(Cl)c(Cl)c2)cc1 (racemic) [Example 77, 7-(3,4-Dichlorophenyl)-N-(4-methoxyphenylsulfonyl)-N,2,5-trimethyl-4,7-dihydropyrazolo[1,5-a]pyrimidine-6-carboxamide]	IC50 [1]: 0.172 µM
–	CC1=C(C(=O)N(C)S(=O)(=O)c2ccccc2)C(c2ccc(Cl)c(Cl)c2)n2nc(C)cc2N1 (racemic) [Example 78, 7-(3,4-Dichlorophenyl)-N,2,5-trimethyl-N-(phenylsulfonyl)-4,7-dihydropyrazolo[1,5-a]pyrimidine-6-carboxamide]	IC50 [1]: 0.164 µM
7%	CC1=C(C(=O)N(C)S(=O)(=O)c2ccc(F)cc2)C(c2ccc(Cl)c(Cl)c2)n2nc(C(F)(F)F)cc2N1 (racemic) [Example 82, 7-(3,4-Dichlorophenyl)-N-(4-fluorophenylsulfonyl)-N,5-dimethyl-2-(trifluoromethyl)-4,7-dihydropyrazolo[1,5-a]pyrimidine-6-carboxamide]	–
40%	CC1=C(C(=O)N2CCN(C)S2(=O)=O)C(c2ccc(Cl)c(Cl)c2)n2nc(C)cc2N1 (racemic) [Example 83]	–
11%	CCCCS(=O)(=O)NC(=O)C1=C(C)Nc2cc(C(F)(F)F)nn2C1c1ccc(Cl)c(Cl)c1 (racemic) [Example 85, N-(Butylsulfonyl)-7-(3,4-dichlorophenyl)-5-methyl-2-(trifluoromethyl)-4,7-dihydropyrazolo[1,5-a]pyrimidine-6-carboxamide]	–
–	CCCCS(=O)(=O)N(C)C(=O)C1=C(C)Nc2cc(C(F)(F)F)nn2C1c1ccc(Cl)c(Cl)c1 (racemic) [Example 86, N-(Butylsulfonyl)-7-(3,4-dichlorophenyl)-N,5-dimethyl-2-(trifluoromethyl)-4,7-dihydropyrazolo[1,5-a]pyrimidine-6-carboxamide]	IC50 (read-out: Kv1.5 IC50): 0.242 µM
–	CC1=C(C(=O)N(C)S(=O)(=O)C(C)C)C(c2ccc(Cl)c(Cl)c2)n2nc(C(F)(F)F)cc2N1 (racemic) [Example 87, 7-(3,4-Dichlorophenyl)-N-(isopropylsulfonyl)-N,5-dimethyl-2-(trifluoromethyl)-4,7-dihydropyrazolo[1,5-a]pyrimidine-6-carboxamide]	IC50 (read-out: Kv1.5 IC50): 0.259 µM

Structure (SMILES)	inhibition at 0.3 µM	other results
COc1ccc(NS(=O)(=O)C2=C(C)Nc3cc(C)nn3C2c2ccc(Cl)c(Cl)c2)cc1 (racemic) [Example 37, 7-(3,4-Dichlorophenyl)-N-(4-methoxyphenyl)-2,5-dimethyl-4,7-dihydropyrazolo[1,5-a]pyrimidine-6-sulfonamide]	25%	–
